Results published in ChEMBL document CHEMBL4610007, “Design and synthesis of boron-containing diphenylpyrimidines as potent BTK and JAK3 dual inhibitors” (Bioorg Med Chem, 2020).

What was measured:
[1] = target: Tyrosine-protein kinase BTK (Homo sapiens, UniProt Q06187)
Description: Inhibition of recombinant human His-tagged full length BTK expressed in baculovirus expression system using Ulight-Poly GT as substrate incubated for 2 hrs by Lanthascreen TR-FRET assay

Raji = assay: cells; conditions: Homo sapiens, 72 h
Description: Antiproliferative activity against human Raji cells assessed as reduction in cell viability incubated for 72 hrs by CCK-8 assay

Homo sapiens [2] = species: Homo sapiens; assay: Selectivity index, ratio of IC50 for recombinant human N-terminal GST-tagged TYK2 (871 to 1187 residues) expressed in baculovirus expression system to IC50 for recombinant human N-terminal His-tagged JAK3 (795 to 1124 residues) expressed in baculovirus expression system
Ramos = assay: cells; conditions: Homo sapiens, 72 h
Description: Antiproliferative activity against human Ramos cells assessed as reduction in cell viability incubated for 72 hrs by CCK-8 assay

[3] = target: T1, Tyrosine-protein kinase JAK3 (Homo sapiens, UniProt P52333)
T1 sequence (P52333 whole entry): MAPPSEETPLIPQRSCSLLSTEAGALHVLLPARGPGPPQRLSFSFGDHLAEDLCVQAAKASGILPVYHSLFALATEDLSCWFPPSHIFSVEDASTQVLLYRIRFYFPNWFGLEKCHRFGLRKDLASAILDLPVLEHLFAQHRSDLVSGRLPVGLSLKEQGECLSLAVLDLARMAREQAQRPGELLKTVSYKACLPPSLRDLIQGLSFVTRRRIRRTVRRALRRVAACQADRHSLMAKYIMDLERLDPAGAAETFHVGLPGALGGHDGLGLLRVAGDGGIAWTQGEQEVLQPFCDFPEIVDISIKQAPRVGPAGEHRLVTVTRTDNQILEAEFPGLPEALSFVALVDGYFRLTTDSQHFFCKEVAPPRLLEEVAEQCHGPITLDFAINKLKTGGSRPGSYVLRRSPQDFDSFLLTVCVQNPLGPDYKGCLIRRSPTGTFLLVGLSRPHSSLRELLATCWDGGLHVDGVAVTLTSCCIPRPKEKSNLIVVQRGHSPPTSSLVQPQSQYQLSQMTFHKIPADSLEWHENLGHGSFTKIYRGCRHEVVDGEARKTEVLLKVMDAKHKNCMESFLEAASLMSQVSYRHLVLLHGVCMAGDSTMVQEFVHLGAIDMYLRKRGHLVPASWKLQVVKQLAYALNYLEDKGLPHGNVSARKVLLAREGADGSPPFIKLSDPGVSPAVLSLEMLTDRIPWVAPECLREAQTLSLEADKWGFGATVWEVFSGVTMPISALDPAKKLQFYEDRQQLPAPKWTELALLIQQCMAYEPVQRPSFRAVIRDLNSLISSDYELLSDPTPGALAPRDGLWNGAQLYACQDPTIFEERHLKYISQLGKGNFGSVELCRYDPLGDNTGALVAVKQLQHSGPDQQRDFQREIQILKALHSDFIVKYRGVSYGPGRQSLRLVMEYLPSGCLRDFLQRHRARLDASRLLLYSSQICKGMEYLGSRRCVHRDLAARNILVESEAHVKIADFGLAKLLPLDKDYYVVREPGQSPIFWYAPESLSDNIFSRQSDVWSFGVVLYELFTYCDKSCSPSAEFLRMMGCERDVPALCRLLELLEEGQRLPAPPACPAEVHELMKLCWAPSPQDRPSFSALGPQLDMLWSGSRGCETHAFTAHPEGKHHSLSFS
Description: Inhibition of recombinant human N-terminal His-tagged JAK3 (795 to 1124 residues) expressed in baculovirus expression system using Ulight-Poly GT as substrate incubated for 2 hrs by Lanthascreen TR-FRET assay

in vitro [4] = conditions: human, liver microsomes
in vitro [5] = conditions: human, liver microsomes; remark: listed apart in the source
Description: Metabolic stability in human liver microsomes assessed as compound remaining at 0.2 uM incubated for 60 mins by UPLC-MS/MS analysis

[6] = target: Non-receptor tyrosine-protein kinase TYK2 (Homo sapiens, UniProt P29597); assay: Inhibition of recombinant human N-terminal GST-tagged TYK2 (871 to 1187 residues) expressed in baculovirus expression system using Ulight-Poly GT as substrate incubated for 2 hrs by Lanthascreen TR-FRET assay
Sequence of Non-receptor tyrosine-protein kinase TYK2 (P29597 whole entry, the tested form may be a part): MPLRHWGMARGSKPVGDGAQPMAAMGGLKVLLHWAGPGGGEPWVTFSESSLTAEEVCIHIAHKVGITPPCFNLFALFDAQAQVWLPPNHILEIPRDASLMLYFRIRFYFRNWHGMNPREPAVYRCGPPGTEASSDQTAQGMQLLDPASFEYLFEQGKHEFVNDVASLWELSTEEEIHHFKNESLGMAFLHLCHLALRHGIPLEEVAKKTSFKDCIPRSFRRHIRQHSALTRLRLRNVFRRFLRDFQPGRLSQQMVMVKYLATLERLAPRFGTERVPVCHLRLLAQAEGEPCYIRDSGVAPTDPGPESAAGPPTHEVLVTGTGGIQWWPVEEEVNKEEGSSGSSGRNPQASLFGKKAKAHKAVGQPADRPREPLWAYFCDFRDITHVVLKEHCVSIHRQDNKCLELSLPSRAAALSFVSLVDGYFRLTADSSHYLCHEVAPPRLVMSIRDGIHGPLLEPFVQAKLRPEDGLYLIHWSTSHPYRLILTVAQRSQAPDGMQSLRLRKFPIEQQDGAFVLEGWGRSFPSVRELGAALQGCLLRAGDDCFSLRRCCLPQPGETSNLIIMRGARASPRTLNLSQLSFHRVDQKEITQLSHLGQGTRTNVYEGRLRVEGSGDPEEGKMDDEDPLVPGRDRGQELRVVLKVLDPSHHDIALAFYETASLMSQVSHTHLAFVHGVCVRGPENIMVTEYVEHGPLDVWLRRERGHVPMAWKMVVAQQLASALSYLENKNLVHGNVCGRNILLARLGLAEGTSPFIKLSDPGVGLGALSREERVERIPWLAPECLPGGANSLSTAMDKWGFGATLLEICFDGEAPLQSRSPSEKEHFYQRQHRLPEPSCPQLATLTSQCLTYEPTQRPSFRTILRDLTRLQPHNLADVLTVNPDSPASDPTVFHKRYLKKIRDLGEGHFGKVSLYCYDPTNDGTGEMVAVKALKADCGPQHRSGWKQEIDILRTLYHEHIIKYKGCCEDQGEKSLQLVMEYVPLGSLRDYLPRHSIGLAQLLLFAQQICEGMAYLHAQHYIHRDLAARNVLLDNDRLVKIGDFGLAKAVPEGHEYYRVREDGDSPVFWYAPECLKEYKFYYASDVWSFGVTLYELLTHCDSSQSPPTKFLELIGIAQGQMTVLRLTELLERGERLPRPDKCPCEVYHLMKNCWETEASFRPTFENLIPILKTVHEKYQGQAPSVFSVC

OCI-Ly10 = assay: cells; conditions: Homo sapiens, OCI-Ly10, 72 h
Description: Antiproliferative activity against human OCI-LY10 cells assessed as reduction in cell viability incubated for 72 hrs by CCK-8 assay

Homo sapiens [7] = species: Homo sapiens; assay: Selectivity index, ratio of IC50 for recombinant human N-terminal His-tagged JAK2 (826 to 1132 residues) expressed in baculovirus expression system to IC50 for recombinant human N-terminal His-tagged JAK3 (795 to 1124 residues) expressed in baculovirus expression system
[8] = target: Tyrosine-protein kinase JAK2 (Homo sapiens, UniProt O60674)
Sequence of Tyrosine-protein kinase JAK2 (O60674 whole entry, the tested form may be a part): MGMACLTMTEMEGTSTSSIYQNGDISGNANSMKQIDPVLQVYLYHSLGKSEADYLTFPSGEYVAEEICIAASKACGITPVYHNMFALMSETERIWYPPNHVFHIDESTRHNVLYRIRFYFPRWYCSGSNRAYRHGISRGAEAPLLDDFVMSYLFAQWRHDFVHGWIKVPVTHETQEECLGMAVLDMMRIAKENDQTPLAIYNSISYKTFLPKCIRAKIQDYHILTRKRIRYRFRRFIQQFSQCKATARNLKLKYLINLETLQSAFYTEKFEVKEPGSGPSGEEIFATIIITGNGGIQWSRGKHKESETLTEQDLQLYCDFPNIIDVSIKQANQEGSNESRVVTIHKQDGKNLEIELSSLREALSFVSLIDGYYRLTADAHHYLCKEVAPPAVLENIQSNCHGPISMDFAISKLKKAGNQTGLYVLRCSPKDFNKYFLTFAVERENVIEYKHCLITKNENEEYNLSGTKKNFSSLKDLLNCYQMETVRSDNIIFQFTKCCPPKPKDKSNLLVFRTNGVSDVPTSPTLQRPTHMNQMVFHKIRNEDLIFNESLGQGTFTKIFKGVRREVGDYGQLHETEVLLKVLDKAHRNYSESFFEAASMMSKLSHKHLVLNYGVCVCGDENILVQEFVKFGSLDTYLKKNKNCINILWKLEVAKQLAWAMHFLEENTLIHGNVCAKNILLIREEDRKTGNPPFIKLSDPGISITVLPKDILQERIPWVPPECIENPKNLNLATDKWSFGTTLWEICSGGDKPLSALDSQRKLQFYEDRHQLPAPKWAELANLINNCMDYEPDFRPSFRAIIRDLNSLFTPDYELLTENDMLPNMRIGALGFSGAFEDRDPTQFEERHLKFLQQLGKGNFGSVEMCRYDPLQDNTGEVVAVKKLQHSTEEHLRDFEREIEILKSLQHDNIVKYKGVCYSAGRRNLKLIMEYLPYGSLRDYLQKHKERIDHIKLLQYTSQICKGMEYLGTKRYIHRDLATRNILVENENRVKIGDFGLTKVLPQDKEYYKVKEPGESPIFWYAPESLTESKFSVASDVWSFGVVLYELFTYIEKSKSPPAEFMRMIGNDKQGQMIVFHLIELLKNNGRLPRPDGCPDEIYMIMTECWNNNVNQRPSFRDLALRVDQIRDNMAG
Description: Inhibition of recombinant human N-terminal His-tagged JAK2 (826 to 1132 residues) expressed in baculovirus expression system using Ulight-Poly GT as substrate incubated for 2 hrs by Lanthascreen TR-FRET assay

Homo sapiens [9] = species: Homo sapiens; assay: Selectivity index, ratio of IC50 for recombinant human N-terminal GST-tagged JAK1 (850 to 1154 residues) expressed in baculovirus expression system to IC50 for recombinant human N-terminal His-tagged JAK3 (795 to 1124 residues) expressed in baculovirus expression system
[10] = target: Tyrosine-protein kinase JAK1 (Homo sapiens, UniProt P23458); assay: Inhibition of recombinant human N-terminal GST-tagged JAK1 (850 to 1154 residues) expressed in baculovirus expression system using Ulight-Poly GT as substrate incubated for 2 hrs by Lanthascreen TR-FRET assay
Sequence of Tyrosine-protein kinase JAK1 (P23458 whole entry, the tested form may be a part): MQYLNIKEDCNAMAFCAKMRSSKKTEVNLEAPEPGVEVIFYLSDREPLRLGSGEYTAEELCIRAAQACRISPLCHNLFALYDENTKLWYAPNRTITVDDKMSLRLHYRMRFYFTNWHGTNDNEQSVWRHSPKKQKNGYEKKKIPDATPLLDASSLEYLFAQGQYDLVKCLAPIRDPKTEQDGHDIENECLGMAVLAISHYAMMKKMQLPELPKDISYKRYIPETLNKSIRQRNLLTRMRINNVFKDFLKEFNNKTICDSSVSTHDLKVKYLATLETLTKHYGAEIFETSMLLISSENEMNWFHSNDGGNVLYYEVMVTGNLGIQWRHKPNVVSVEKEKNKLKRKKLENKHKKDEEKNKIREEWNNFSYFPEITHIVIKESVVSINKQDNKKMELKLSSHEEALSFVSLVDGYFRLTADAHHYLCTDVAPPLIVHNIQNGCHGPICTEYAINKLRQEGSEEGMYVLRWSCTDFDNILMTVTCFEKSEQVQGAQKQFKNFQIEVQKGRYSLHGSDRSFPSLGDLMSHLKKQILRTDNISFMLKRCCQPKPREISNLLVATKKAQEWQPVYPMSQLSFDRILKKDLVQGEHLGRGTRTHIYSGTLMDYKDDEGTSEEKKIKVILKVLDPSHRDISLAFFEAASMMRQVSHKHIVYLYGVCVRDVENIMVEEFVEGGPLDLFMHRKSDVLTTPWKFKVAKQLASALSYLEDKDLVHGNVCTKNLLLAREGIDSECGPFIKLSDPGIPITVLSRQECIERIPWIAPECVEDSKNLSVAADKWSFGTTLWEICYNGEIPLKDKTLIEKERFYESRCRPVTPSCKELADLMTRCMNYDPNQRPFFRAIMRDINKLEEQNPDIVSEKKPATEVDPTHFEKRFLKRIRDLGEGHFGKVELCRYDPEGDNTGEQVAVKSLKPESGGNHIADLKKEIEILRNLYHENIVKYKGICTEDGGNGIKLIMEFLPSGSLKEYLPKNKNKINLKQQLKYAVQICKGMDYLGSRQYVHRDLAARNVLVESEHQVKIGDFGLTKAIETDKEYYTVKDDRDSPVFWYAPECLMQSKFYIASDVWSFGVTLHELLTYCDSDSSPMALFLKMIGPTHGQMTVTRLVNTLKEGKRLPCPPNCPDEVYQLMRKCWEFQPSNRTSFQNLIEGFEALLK

HEL = assay: cells; conditions: Homo sapiens, 72 h
Description: Antiproliferative activity against human HEL cells assessed as reduction in cell viability incubated for 72 hrs by CCK-8 assay

in vitro [11] = conditions: human, liver microsomes; remark: listed apart in the source
JeKo-1 = assay: cells; conditions: Homo sapiens, JeKo-1, 72 h
Description: Antiproliferative activity against human JeKo1 cells assessed as reduction in cell viability incubated for 72 hrs by CCK-8 assay

Sequence of Tyrosine-protein kinase BTK (Q06187 whole entry): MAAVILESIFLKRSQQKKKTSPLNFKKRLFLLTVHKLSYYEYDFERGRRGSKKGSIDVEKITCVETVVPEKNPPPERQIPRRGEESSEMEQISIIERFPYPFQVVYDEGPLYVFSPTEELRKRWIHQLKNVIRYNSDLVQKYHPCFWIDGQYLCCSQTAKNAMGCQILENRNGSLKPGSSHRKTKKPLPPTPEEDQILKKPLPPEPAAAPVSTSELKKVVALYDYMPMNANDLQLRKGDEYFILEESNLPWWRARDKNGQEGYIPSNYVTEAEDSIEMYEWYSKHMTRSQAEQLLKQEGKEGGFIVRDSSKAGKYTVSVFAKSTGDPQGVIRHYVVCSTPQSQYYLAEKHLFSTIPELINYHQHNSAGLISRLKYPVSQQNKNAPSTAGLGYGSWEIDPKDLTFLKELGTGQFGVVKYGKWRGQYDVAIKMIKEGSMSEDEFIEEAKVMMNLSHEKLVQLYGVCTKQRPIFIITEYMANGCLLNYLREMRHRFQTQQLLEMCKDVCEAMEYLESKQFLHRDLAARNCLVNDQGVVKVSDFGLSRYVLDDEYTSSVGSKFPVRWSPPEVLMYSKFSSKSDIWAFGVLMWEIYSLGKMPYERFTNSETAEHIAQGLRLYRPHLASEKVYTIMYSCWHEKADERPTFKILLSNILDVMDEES

Compound: C=CC(=O)Nc1cccc(Nc2nc(Nc3cccc(B(O)O)c3)ncc2C(F)(F)F)c1
- IC50 [1]: 6.5 nM

Compound: C=CC(=O)Nc1cccc(Nc2nc(Nc3ccc4c(c3)COB4O)ncc2C(F)(F)F)c1
- IC50 [1]: 0.6 nM
- IC50 (Raji): 1700 nM
- Ratio IC50 (Homo sapiens [2]): > 1000
- IC50 (Ramos): 500 nM
- IC50 [3]: 0.4 nM
- half-life at 1 h, 0.2 µM (in vitro [4]): 58.8 min
- remaining at 1 h, 0.2 µM (in vitro [5]): 47.2%
- IC50 [6]: > 1000 nM
- IC50 (OCI-Ly10): 1000 to 10000 nM
- Ratio IC50 (Homo sapiens [7]): > 1000
- IC50 [8]: 658 nM
- Ratio IC50 (Homo sapiens [9]): > 1000
- IC50 [10]: > 1000 nM
- IC50 (HEL): 1100 nM
- microsomal CLint at 1 h, 0.2 µM (in vitro [11]): 23.6 µL/min/mg
- IC50 (JeKo-1): 500 nM

Compound: CN(C)C/C=C/C(=O)Nc1cccc(Nc2nc(Nc3ccc4c(c3)COB4O)ncc2C(F)(F)F)c1
- IC50 [1]: 11.8 nM

Compound: C=CC(=O)Nc1ccc(OC)c(Nc2nc(Nc3ccc4c(c3)B(O)OC4)ncc2C(F)(F)F)c1
- IC50 [1]: > 1000 nM

Compound: C=CC(=O)Nc1cccc(Oc2nc(Nc3ccc4c(c3)COB4O)ncc2OC)c1
- IC50 [1]: 1.7 nM
- Ratio IC50 (Homo sapiens [2]): > 1000
- IC50 [3]: 0.8 nM
- IC50 [6]: > 1000 nM
- Ratio IC50 (Homo sapiens [7]): > 1000
- IC50 [8]: > 1000 nM
- Ratio IC50 (Homo sapiens [9]): > 1000
- IC50 [10]: > 1000 nM

Compound: C=CC(=O)Nc1cccc(Nc2nc(Nc3ccc(B(O)O)cc3)ncc2C(F)(F)F)c1
- IC50 [1]: 1.5 nM
- Ratio IC50 (Homo sapiens [2]): > 1000
- IC50 [3]: 0.3 nM
- IC50 [6]: > 1000 nM
- Ratio IC50 (Homo sapiens [7]): > 1000
- IC50 [8]: 891 nM
- Ratio IC50 (Homo sapiens [9]): > 1000
- IC50 [10]: > 1000 nM

Compound: C=CC(=O)Nc1cccc(Nc2nc(Nc3ccc4c(c3)B(O)OC4)ncc2C(F)(F)F)c1
- IC50 [1]: 2.9 nM
- IC50 (Raji): 6800 nM
- Ratio IC50 (Homo sapiens [2]): > 1000
- IC50 (Ramos): 2300 nM
- IC50 [3]: 0.5 nM
- half-life at 1 h, 0.2 µM (in vitro [4]): 55.9 min
- remaining at 1 h, 0.2 µM (in vitro [5]): 45%
- IC50 [6]: > 1000 nM
- IC50 (OCI-Ly10): > 10000 nM
- Ratio IC50 (Homo sapiens [7]): > 1000
- IC50 [8]: 972 nM
- Ratio IC50 (Homo sapiens [9]): > 1000
- IC50 [10]: > 1000 nM
- IC50 (HEL): 5100 nM
- microsomal CLint at 1 h, 0.2 µM (in vitro [11]): 24.8 µL/min/mg
- IC50 (JeKo-1): 1200 nM

Compound: C=CC(=O)Nc1cccc(Nc2nc(Oc3ccc4c(c3)B(O)OC4)ncc2C(F)(F)F)c1
- IC50 [1]: > 1000 nM

Compound: C=CC(=O)Nc1cccc(Nc2nc(Nc3cccc4c3COB4O)ncc2C(F)(F)F)c1
- IC50 [1]: 63 nM

Compound: C=CC(=O)Nc1cccc(Nc2nc(Nc3cccc4c3B(O)OC4)ncc2C(F)(F)F)c1
- IC50 [1]: 268 nM

Compound: C=CC(=O)Nc1cccc(Nc2nc(Nc3ccc(OCCOC)cc3)ncc2F)c1 [SPEBRUTINIB]
- IC50 (Raji): 17600 nM
- IC50 (Ramos): 3900 nM
- IC50 [3]: 8.5 nM
- half-life at 1 h, 0.2 µM (in vitro [4]): 43.4 min
- remaining at 1 h, 0.2 µM (in vitro [5]): 38.8%
- IC50 (OCI-Ly10): > 10000 nM
- IC50 [8]: 534 nM
- IC50 [10]: > 1000 nM
- IC50 (HEL): 5300 nM
- microsomal CLint at 1 h, 0.2 µM (in vitro [11]): 31.9 µL/min/mg
- IC50 (JeKo-1): 1300 nM

Compound: C=CC(=O)Nc1cccc(Nc2nc(NNc3ccccc3)ncc2C(F)(F)F)c1
- IC50 [1]: > 1000 nM

Compound: C=CC(=O)Nc1cccc(Nc2nc(Nc3cc4c(cc3F)COB4O)ncc2C(F)(F)F)c1
- IC50 [1]: 156 nM

Compound: C=CC(=O)N1CCCC(Nc2nc(Nc3ccc4c(c3)COB4O)ncc2C(F)(F)F)C1 (centres undefined)
- IC50 [1]: 36.8 nM

Compound: C=CC(=O)Nc1cccc(Nc2nc(Nc3ccc4c(c3)B(O)OC4)ncc2Cl)c1
- IC50 [1]: 4.7 nM

Compound: C=CC(=O)Nc1cccc(Oc2nc(Nc3ccc4c(c3)COB4O)ncc2C(F)(F)F)c1
- IC50 [1]: 6.5 nM

Compound: C=CC(=O)Nc1cccc(Nc2nc(Nc3ccc4c(c3)B(O)OC4)ncc2C)c1
- IC50 [1]: 6.1 nM

Compound: C=CC(=O)Nc1cccc(Nc2nc(Nc3ccc4c(c3)B(O)OCC4)ncc2C(F)(F)F)c1
- IC50 [1]: 1.9 nM
- Ratio IC50 (Homo sapiens [2]): > 1000
- IC50 [3]: 1.5 nM
- IC50 [6]: > 1000 nM
- Ratio IC50 (Homo sapiens [7]): > 1000
- IC50 [8]: > 1000 nM
- Ratio IC50 (Homo sapiens [9]): > 1000
- IC50 [10]: > 1000 nM

Compound: C=CC(=O)Nc1cccc(Nc2nc(Nc3ccc4c(c3)COB4O)ncc2OC)c1
- IC50 [1]: 8.2 nM

Compound: C=CC(=O)Nc1cccc(Nc2nc(Nc3ccc4c(c3)B(O)OC4)ncc2F)c1
- IC50 [1]: 8.5 nM

Compound: C=CC(=O)Nc1cccc(Nc2nc(Nc3ccc4c(c3)B(O)OC4(C)C)ncc2C(F)(F)F)c1
- IC50 [1]: 2 nM
- Ratio IC50 (Homo sapiens [2]): > 1000
- IC50 [3]: 1 nM
- IC50 [6]: > 1000 nM
- Ratio IC50 (Homo sapiens [7]): > 1000
- IC50 [8]: > 1000 nM
- Ratio IC50 (Homo sapiens [9]): > 1000
- IC50 [10]: > 1000 nM
